From ChEMBL document CHEMBL1156475, “Efficient inhibition of class A and class D beta-lactamases by Michaelis complexes” (J Biol Chem, 2007)
pIC50: −log10 of the molar value.

Tests used:
[1] = Inhibition of beta lactamase P99
[2] = target: Beta-lactamase OXA-1 (Escherichia coli) (UniProt P13661); assay: Inhibition of Escherichia coli beta lactamase OXA-1
[3] = Inhibition of beta lactamase TEM1
[4] = Inhibition of beta lactamase SHV1

Chain of Beta-lactamase OXA-1 (Escherichia coli) (P13661 whole entry): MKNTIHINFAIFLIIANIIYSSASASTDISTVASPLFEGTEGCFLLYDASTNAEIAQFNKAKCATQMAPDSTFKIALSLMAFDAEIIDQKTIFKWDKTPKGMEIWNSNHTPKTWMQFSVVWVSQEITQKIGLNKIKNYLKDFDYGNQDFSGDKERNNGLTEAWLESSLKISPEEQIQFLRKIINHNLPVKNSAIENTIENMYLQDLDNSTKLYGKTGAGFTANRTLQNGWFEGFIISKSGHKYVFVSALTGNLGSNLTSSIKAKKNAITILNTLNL

SMILES	pIC50 [1]	Kinact [2]	pIC50 [3]	Kinact [4]
C[C@]1(COC(=O)Cc2ccccc2)[C@H](C(=O)O)N2C(=O)/C(=C/c3ccccn3)[C@H]2S1(=O)=O	9.00	1 µM	7.40	42 nM
C[C@]1(Cn2ccnn2)[C@H](C(=O)O)N2C(=O)C[C@H]2S1(=O)=O	–	–	–	330 nM
